From patent US10761087B2, “Choroidal neovascularization suppressor or drusen formation suppressor, and method for assessing or screening for same” (Link Genomics, Inc., priority 2015, dated 2020) come the findings set out here.

Assay [1] concerns Collagen Type 1. The assay can be described thus: Mouse laser irradiation model: EMT assessment, Collagen Type 1 staining. Format: in vivo. The following applies: 25 mg/kg orally once a day for three weeks. As for the experimental part: It is known that laser irradiation of a mouse ocular fundus induces choroidal angiogenesis and EMT (Reference document: Ishikawa, et al, Exp Eye Res. 2016 January; 142:19.25). So, zaltoprofen was assessed for the suppressive effect of CNV and EMT by using a mouse laser irradiation model. A zaltoprofen suspension was prepared by stirring 0.15 g of zaltoprofen (available from TOKYO CHEMICAL […] CO., LTD.) and 0.75 g of gum arabic (available from Wako Pure Chemical Industries, Ltd.) in 60 mL of water. A medium (Vehicle) was prepared by dissolving and stirring 0.75 g of gum arabic in 60 mL of water. Then, an ocular fundus of a C57BL/6J mouse (8-week old, N=13) was laser-irradiated at four points for each eye under a slit lump using a multi-color laser light coagulator. From directly after irradiation, a vehicle or a zaltoprofen solution (25 mg/kg) was orally administered once a day for three weeks, and the following assessments were conducted. For (1) and (3), the same individual was used. After three weeks from laser irradiation, mice were euthanatized by cervical dislocation, and eyeballs were extracted, and dipped and fixed in 4% paraformaldehyde phosphate buffer (Wako Pure Chemical Industries, Ltd.). […] The specimen was subjected to photography of a stained image by the anti-Collagen Type 1 antibody under a microscope, and then quantitatively assessed.

Assay [2] relates to C57BL/6J mouse. The assay can be described thus: Mouse laser irradiation model: CNV assessment by fluorescent fundus photograph. The assay is classed as in vivo. The following applies: 25 mg/kg orally once a day, versus Vehicle administration group. Here is the method:
It is known that laser irradiation of a mouse ocular fundus induces choroidal angiogenesis and EMT (Reference document: Ishikawa, et al, Exp Eye Res. 2016 January; 142:19.25). So, zaltoprofen was assessed for the suppressive effect of CNV and EMT by using a mouse laser irradiation model. A zaltoprofen suspension was prepared by stirring 0.15 g of zaltoprofen (available from TOKYO CHEMICAL […] CO., LTD.) and 0.75 g of gum arabic (available from Wako Pure Chemical Industries, Ltd.) in 60 mL of water. A medium (Vehicle) was prepared by dissolving and stirring 0.75 g of gum arabic in 60 mL of water. Then, an ocular fundus of a C57BL/6J mouse (8-week old, N=13) was laser-irradiated at four points for each eye under a slit lump using a multi-color laser light coagulator. From directly after irradiation, a vehicle or a zaltoprofen solution (25 mg/kg) was orally administered once a day for three weeks, and the following assessments were conducted. For (1) and (3), the same individual was used. After two weeks from laser irradiation, Fluorescite Injection 500 mg (Alcon Japan Ltd.) was administered (1 mL/kg) from the caudal vein, after about 1 minute from the administration, and a fluorescent fundus photograph was taken. Four points for each eye from the taken fluorescent fundus photograph were scored on the basis of the following assessment criteria. [Assessment Criteria] [table]

For the compound `CC(C(=O)O)c1ccc2c(c1)CC(=O)c1ccccc1S2` (stereo not shown) [Zaltoprofen, zaltoprofen], the “EMT suppressive effect (Collagen Type 1 assessment)” value in assay [1] is “significant suppressive effect for EMT”. Besides, in assay [1] (versus Vehicle administration group, p<0.05), the “Stained volume of Collagen Type 1” value is recorded as “significantly decreases”. In addition, the “CNV by laser irradiation (fluorescent fundus photographs)” value in assay [2] (FIG. 22) was “significantly suppressed”. In assay [2] (two weeks after laser irradiation), the “CNV score by laser irradiation” value is “significantly lower”.
